Patent US12384770B2, “Heterocyclic compound” (Takeda Pharmaceutical Company Limited, priority 2019, dated 2025)

Target: T1, HDAC6 enzyme (Homo sapiens, UniProt Q9UBN7)
T1 construct: HDAC6 enzyme prepared by transducing full length HDAC6 gene into Sf-9 insect cells; GST; purchased SignalChem; host or cells: Sf-9 insect cells
T1 sequence (Q9UBN7 1-1215): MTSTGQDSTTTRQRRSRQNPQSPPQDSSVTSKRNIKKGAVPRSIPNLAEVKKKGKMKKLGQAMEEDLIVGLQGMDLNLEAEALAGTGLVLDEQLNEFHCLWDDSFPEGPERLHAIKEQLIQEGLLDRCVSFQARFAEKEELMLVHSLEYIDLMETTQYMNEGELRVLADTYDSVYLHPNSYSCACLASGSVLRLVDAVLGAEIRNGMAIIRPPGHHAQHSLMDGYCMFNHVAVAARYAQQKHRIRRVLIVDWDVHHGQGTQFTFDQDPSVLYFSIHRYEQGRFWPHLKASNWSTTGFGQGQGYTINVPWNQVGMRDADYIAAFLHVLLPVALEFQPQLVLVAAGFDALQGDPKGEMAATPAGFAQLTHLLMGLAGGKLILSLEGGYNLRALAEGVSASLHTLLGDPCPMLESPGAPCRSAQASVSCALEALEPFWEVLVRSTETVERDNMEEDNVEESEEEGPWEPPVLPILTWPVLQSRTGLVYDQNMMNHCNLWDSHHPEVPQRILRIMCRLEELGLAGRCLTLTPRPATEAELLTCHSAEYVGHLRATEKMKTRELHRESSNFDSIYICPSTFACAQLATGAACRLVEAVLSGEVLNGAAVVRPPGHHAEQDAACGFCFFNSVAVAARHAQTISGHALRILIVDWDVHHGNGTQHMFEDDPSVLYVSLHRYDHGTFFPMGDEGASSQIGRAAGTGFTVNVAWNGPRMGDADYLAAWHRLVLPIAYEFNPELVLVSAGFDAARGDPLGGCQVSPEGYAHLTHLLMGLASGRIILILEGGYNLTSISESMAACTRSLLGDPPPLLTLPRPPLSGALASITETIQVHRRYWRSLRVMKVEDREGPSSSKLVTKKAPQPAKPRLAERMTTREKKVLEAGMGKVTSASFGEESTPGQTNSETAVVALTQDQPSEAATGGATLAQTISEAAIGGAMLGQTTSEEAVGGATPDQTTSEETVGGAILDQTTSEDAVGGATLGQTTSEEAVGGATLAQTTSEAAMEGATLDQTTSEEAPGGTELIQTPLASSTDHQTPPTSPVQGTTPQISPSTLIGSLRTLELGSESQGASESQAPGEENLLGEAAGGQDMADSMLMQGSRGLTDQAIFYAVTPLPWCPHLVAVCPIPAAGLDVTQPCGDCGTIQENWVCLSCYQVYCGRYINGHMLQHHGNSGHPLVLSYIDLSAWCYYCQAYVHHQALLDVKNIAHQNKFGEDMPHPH
Assay: HDAC6 enzyme inhibitory assay (HDAC-Glo I/II Assay kit)
Format: biochemical
Settings: wells without enzyme = 100% inhibition, read-out: HDAC6 inhibitory rate (%) (10 μM)
Description: Experimental Example 1 HDAC6 Enzyme Inhibitory Assay
HDAC6 enzyme prepared by transducing full length HDAC6 gene into Sf-9 insect cells and purifying by GST affinity column were purchased from SignalChem. Using this enzyme, HDAC6 enzyme inhibitory activity of the compound of the present invention were evaluated. Enzymes were used after preserved at −70° C. HDAC6 enzyme inhibitory activity of the compound of the present invention was measured using HDAC-Glo™ I/II Assay kit (Promega) according to the following experimental method. The test compound diluted with assay buffer (24 mM Tris-HCl (pH 7.5), 1 mM MgCl2, 0.35 mM KCl, 135 mM NaCl, 0.6 mM Glutathione, 0.01% Tween-20) was added to a 384-well plate by each 2 μL. Then, HDAC6 enzyme solution diluted with assay buffer was added thereto by each 4 μL, and the plate was incubated at room temperature for 60 min. After incubated, HDAC substrate-Developer solution prepared according to Promega protocol attached to the assay kit was added to the 384-well plate by each 2 μL, and the enzyme reaction was started. After reacting at room temperature for 20 min, luminescence level was measured using plate reader Envision (PerkinElmer). The inhibitory activity of each compound of Example was calculated as a relative activity value when luminescence level in wells without enzyme is considered as 100% inhibition.

| SMILES | inhibition at 10 µM |
| --- | --- |
| O=C1c2cc(-c3nnc(C(F)F)o3)ccc2CN1[C@H](c1cc(F)c(F)c(F)c1)[C@@H](O)c1ccccn1 (racemic) [Example 15, 6-[5-(difluoromethyl)-1,3,4-oxadiazol-2-yl]-2-[(1RS,2RS)-2-hydroxy-2-(pyridin-2-yl)-1-(3,4,5-trifluorophenyl)ethyl]-2,3-dihydro-1H-isoindol-1-one] | 99% |
| O=C1c2cc(-c3nnc(C(F)F)o3)ccc2CN1[C@H](c1ccc(F)cc1)[C@@H](O)c1cccc(F)c1 (racemic) [Example 16, 6-[5-(difluoromethyl)-1,3,4-oxadiazol-2-yl]-2-[(1RS,2SR)-2-(3-fluorophenyl)-1-(4-fluorophenyl)-2-hydroxyethyl]-2,3-dihydro-1H-isoindol-1-one] | 99% |
| O=C1c2cc(-c3nnc(C(F)F)o3)ccc2CN1[C@H](c1ccc(C(F)(F)F)nc1)[C@@H](O)c1ccccc1 (racemic) [Example 17, 6-[5-(difluoromethyl)-1,3,4-oxadiazol-2-yl]-2-{(1RS,2SR)-2-hydroxy-2-phenyl-1-[6-(trifluoromethyl)pyridin-3-yl]ethyl}-2,3-dihydro-1H-isoindol-1-one] | 100% |
| O=C1c2cc(-c3nnc(C(F)F)o3)ccc2CN1[C@H](c1ccc(C(F)(F)F)nc1)[C@@H](O)c1ccc(F)cc1 (racemic) [Example 18, 6-[5-(difluoromethyl)-1,3,4-oxadiazol-2-yl]-2-{(1RS,2SR)-2-(4-fluorophenyl)-2-hydroxy-1-[6-(trifluoromethyl)pyridin-3-yl]ethyl}-2,3-dihydro-1H-isoindol-1-one] | 99% |
| O=C1c2cc(-c3nnc(C(F)F)o3)ccc2CN1[C@H](c1ccc(F)cc1)[C@@H](O)C1CC1 (racemic) [Example 19, 2-[(1RS,2SR)-2-cyclopropyl-1-(4-fluorophenyl)-2-hydroxyethyl]-6-[5-(difluoromethyl)-1,3,4-oxadiazol-2-yl]-2,3-dihydro-1H-isoindol-1-one] | 99% |
| O=C1c2cc(-c3nnc(C(F)F)o3)ccc2CN1[C@H](c1cccc(F)c1)[C@@H](O)c1ccccc1 (racemic) [Example 20, 6-[5-(difluoromethyl)-1,3,4-oxadiazol-2-yl]-2-[(1RS,2SR)-1-(3-fluorophenyl)-2-hydroxy-2-phenylethyl]-2,3-dihydro-1H-isoindol-1-one] | 100% |
| O=C1c2cc(-c3nnc(C(F)F)o3)ccc2CN1[C@H](c1cccc(F)c1)[C@@H](O)c1ccc(F)cc1 (racemic) [Example 21, 6-[5-(difluoromethyl)-1,3,4-oxadiazol-2-yl]-2-[(1RS,2SR)-1-(3-fluorophenyl)-2-(4-fluorophenyl)-2-hydroxyethyl]-2,3-dihydro-1H-isoindol-1-one] | 100% |
| O=C1c2cc(-c3nnc(C(F)F)o3)ccc2CN1[C@H](c1ccccc1)[C@@H](O)c1ccc(F)cc1 (racemic) [Example 22, 6-[5-(difluoromethyl)-1,3,4-oxadiazol-2-yl]-2-[(1RS,2SR)-2-(4-fluorophenyl)-2-hydroxy-1-phenylethyl]-2,3-dihydro-1H-isoindol-1-one] | 99% |
| O=C1c2cc(-c3nnc(C(F)F)o3)ccc2CN1[C@H](c1ccccc1)[C@@H](O)c1cccc(F)c1 (racemic) [Example 23, 6-[5-(difluoromethyl)-1,3,4-oxadiazol-2-yl]-2-[(1RS,2SR)-2-(3-fluorophenyl)-2-hydroxy-1-phenylethyl]-2,3-dihydro-1H-isoindol-1-one] | 100% |
| O=C1c2cc(-c3nnc(C(F)F)o3)ccc2CN1[C@H](c1cccc(C(F)(F)F)c1)[C@@H](O)c1ccccn1 (racemic) [Example 24, 6-[5-(difluoromethyl)-1,3,4-oxadiazol-2-yl]-2-{(1RS,2RS)-2-hydroxy-2-(pyridin-2-yl)-1-[3-(trifluoromethyl)phenyl]ethyl}-2,3-dihydro-1H-isoindol-1-one] | 99% |
| O=C1c2cc(-c3nnc(C(F)F)o3)ccc2CN1[C@H](c1ccccc1)[C@@H](O)C1CCC(F)(F)CC1 (racemic) [Example 25, 2-[(1RS,2SR)-2-(4,4-difluorocyclohexyl)-2-hydroxy-1-phenylethyl]-6-[5-(difluoromethyl)-1,3,4-oxadiazol-2-yl]-2,3-dihydro-1H-isoindol-1-one] | 100% |
| O=C1c2cc(-c3nnc(C(F)F)o3)ccc2CN1[C@H](c1ccc(C(F)(F)F)cc1)[C@@H](O)c1ccccn1 (racemic) [Example 26, 6-[5-(difluoromethyl)-1,3,4-oxadiazol-2-yl]-2-{(1RS,2RS)-2-hydroxy-2-(pyridin-2-yl)-1-[4-(trifluoromethyl)phenyl]ethyl}-2,3-dihydro-1H-isoindol-1-one] | 99% |
| O=C1c2cc(-c3nnc(C(F)F)o3)ccc2CN1[C@H](c1ccccc1F)[C@@H](O)c1ccccc1 (racemic) [Example 27, 6-[5-(difluoromethyl)-1,3,4-oxadiazol-2-yl]-2-[(1RS,2SR)-1-(2-fluorophenyl)-2-hydroxy-2-phenylethyl]-2,3-dihydro-1H-isoindol-1-one] | 101% |
| O=C1c2cc(-c3nnc(C(F)F)o3)ccc2CN1[C@H](c1ccccc1F)[C@@H](O)c1ccc(F)cc1 (racemic) [Example 28, 6-[5-(difluoromethyl)-1,3,4-oxadiazol-2-yl]-2-[(1RS,2SR)-1-(2-fluorophenyl)-2-(4-fluorophenyl)-2-hydroxyethyl]-2,3-dihydro-1H-isoindol-1-one] | 99% |
| O=C1c2cc(-c3nnc(C(F)F)o3)ccc2CN1[C@H](c1ccc(F)cc1)[C@@H](O)c1ccccc1F (racemic) [Example 29, 6-[5-(difluoromethyl)-1,3,4-oxadiazol-2-yl]-2-[(1RS,2SR)-2-(2-fluorophenyl)-1-(4-fluorophenyl)-2-hydroxyethyl]-2,3-dihydro-1H-isoindol-1-one] | 99% |
| O=C1c2cc(-c3nnc(C(F)F)o3)ccc2CN1[C@H](c1ccc(F)cc1)[C@@H](O)C1CCOCC1 (racemic) [Example 30, 6-[5-(difluoromethyl)-1,3,4-oxadiazol-2-yl]-2-[(1RS,2SR)-1-(4-fluorophenyl)-2-hydroxy-2-(oxan-4-yl)ethyl]-2,3-dihydro-1H-isoindol-1-one] | 99% |
| O=C1c2cc(-c3nnc(C(F)F)o3)ccc2CN1[C@H](c1ccc(F)cc1F)[C@@H](O)c1ccccn1 (racemic) [Example 31, 6-[5-(difluoromethyl)-1,3,4-oxadiazol-2-yl]-2-[(1RS,2RS)-1-(2,4-difluorophenyl)-2-hydroxy-2-(pyridin-2-yl)ethyl]-2,3-dihydro-1H-isoindol-1-one] | 97% |
| O=C1c2cc(-c3nnc(C(F)F)o3)ccc2CN1[C@H](c1ccccc1C(F)(F)F)[C@@H](O)c1ccccn1 (racemic) [Example 39, 6-[5-(difluoromethyl)-1,3,4-oxadiazol-2-yl]-2-{(1RS,2RS)-2-hydroxy-2-(pyridin-2-yl)-1-[2-(trifluoromethyl)phenyl]ethyl}-2,3-dihydro-1H-isoindol-1-one] | 101% |
| N#Cc1cccc([C@H]([C@@H](O)c2ccccc2)N2Cc3ccc(-c4nnc(C(F)F)o4)cc3C2=O)c1 (racemic) [Example 40, 3-[(1RS,2SR)-1-{6-[5-(difluoromethyl)-1,3,4-oxadiazol-2-yl]-1-oxo-1,3-dihydro-2H-isoindol-2-yl}-2-hydroxy-2-phenylethyl]benzonitrile] | 100% |
